{
  "source": "paper PMC9255981",
  "about": "(The Oncologist, 2022)",
  "origin": "cited, not measured here",
  "system": "patients",
  "conditions": "phase I study ref [1],[2]",
  "data": [
    {"smiles": "C=CC(=O)N1CCN(c2nc(=O)n(-c3c(C)ccnc3C(C)C)c3nc(-c4c(O)cccc4F)c(F)cc23)[C@@H](C)C1", "note": "[sotorasib]", "values": [
      {"measurement": "grade of blood CPK increase events", "setting": "all events", "value": 1},
      {"measurement": "Myalgia, regardless of causality", "value": "10 % of patients"},
      {"measurement": "blood CPK increase", "value": 3.9, "unit": "%"},
      {"measurement": "most frequent treatment-related AEs (>10%)", "value": "diarrhea, AST increased, and ALT increased"}
    ]}
  ]
}
